Data on one compound can be found in publication PMC6825286 (Proceedings of the National Academy of Sciences of the …, 2019).

The target in the test is T1, SghR (Agrobacterium tumefaciens, UniProt A0A2I4PGE9).
T1 sequence (A0A2I4PGE9 1-350): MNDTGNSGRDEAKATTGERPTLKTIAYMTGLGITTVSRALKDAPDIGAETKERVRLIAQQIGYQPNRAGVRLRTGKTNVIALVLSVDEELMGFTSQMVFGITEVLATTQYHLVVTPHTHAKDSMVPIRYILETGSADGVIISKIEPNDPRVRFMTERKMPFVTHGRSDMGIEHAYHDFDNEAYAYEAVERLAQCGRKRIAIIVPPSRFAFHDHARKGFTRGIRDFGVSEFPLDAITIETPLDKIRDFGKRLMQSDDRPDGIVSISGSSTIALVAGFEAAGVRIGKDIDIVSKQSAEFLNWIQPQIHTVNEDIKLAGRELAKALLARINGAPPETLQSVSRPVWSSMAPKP
The test is described as follows: EMSA, dissociation of SghR from biotin-labelled sghA promoter. Type of test: binding. The settings on record: sucrose 50 and 500 µM; inducer that releases the repressor from DNA. A general note: A gel shift assay detects complexes by their altered migration in electrophoresis.

For `OC[C@H]1O[C@@](CO)(O[C@H]2O[C@H](CO)[C@@H](O)[C@H](O)[C@H]2O)[C@@H](O)[C@@H]1O` [sucrose], the “EMSA, dissociation of SghR from biotin-labelled sghA promoter” value is reported as “gel shift analysis demonstrated that sucrose dissociated repressor SghR from the sghA promoter”.
